Laboratory results as given in PubChem BioAssay AID1963959 (Molecular Pharmacology Branch, DTP, NCI, 2024).

Test system: T-47D spheroids with HUVEC/MSC, viability
Test: Anticancer human tumor T-47D cell line growth inhibition [PI3K];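 also: spheroids exposed to agents for seven days before reading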;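 as to viability, T/C: percent of DMSO vehicle control luminescence so 100% = untreated growth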
Settings: for IC50: curve of first compound; for viability, T/C: stronger effect = lower value
Method in brief: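 Agents were dosed from a top concentration near clinical Cmax (otherwise 10 microM) in half-log decrements, alone or combined with PI3K inhibitors. The spheroids contain tumor cells plus endothelial (HUVEC) and MSC stroma; viability is measured.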

[1] = second compound 0.0316 µM, first compound 0.0316 µM
[2] = second compound 0.0316 µM, first compound 0.1 µM
[3] = second compound 0.0316 µM, first compound 0.316 µM
[4] = second compound 0.0316 µM, first compound 1 µM
[5] = second compound 0.0316 µM, first compound 3.16 µM
[6] = second compound 0.0316 µM, first compound 10 µM
[7] = second compound 0.1 µM, first compound 0.0316 µM
[8] = second compound 0.1 µM, first compound 0.1 µM
[9] = second compound 0.1 µM, first compound 0.316 µM
[10] = second compound 0.1 µM, first compound 1 µM
[11] = second compound 0.1 µM, first compound 3.16 µM
[12] = second compound 0.1 µM, first compound 10 µM
[13] = second compound 0.316 µM, first compound 0.0316 µM
[14] = second compound 0.316 µM, first compound 0.1 µM
[15] = second compound 0.316 µM, first compound 0.316 µM
[16] = second compound 0.316 µM, first compound 1 µM
[17] = second compound 0.316 µM, first compound 3.16 µM
[18] = second compound 0.316 µM, first compound 10 µM
[19] = second compound 1 µM, first compound 0.0316 µM
[20] = second compound 1 µM, first compound 0.1 µM
[21] = second compound 1 µM, first compound 0.316 µM
[22] = second compound 1 µM, first compound 1 µM
[23] = second compound 1 µM, first compound 3.16 µM
[24] = second compound 1 µM, first compound 10 µM
[25] = second compound 3.16 µM, first compound 0.0316 µM
[26] = second compound 3.16 µM, first compound 0.1 µM
[27] = second compound 3.16 µM, first compound 0.316 µM
[28] = second compound 3.16 µM, first compound 1 µM
[29] = second compound 3.16 µM, first compound 3.16 µM
[30] = second compound 3.16 µM, first compound 10 µM
[31] = second compound 10 µM, first compound 0.0316 µM
[32] = second compound 10 µM, first compound 0.1 µM
[33] = second compound 10 µM, first compound 0.316 µM
[34] = second compound 10 µM, first compound 1 µM
[35] = second compound 10 µM, first compound 3.16 µM
[36] = second compound 10 µM, first compound 10 µM

For CC1(C)CCC(CN2CCN(c3ccc(C(=O)NS(=O)(=O)c4ccc(NCC5CCOCC5)c([N+](=O)[O-])c4)c(Oc4cnc5[nH]ccc5c4)c3)CC2)=C(c2ccc(Cl)cc2)C1 + Cc1nc(NC(=O)N2CCCC2C(N)=O)sc1-c1ccnc(C(C)(C)C(F)(F)F)c1, the IC50 (second compound 0.0316 µM) was > 10 µM, the IC50 (second compound 0.1 µM) was > 10 µM and the IC50 (second compound 0.316 µM) was > 10 µM. The IC50 (second compound 1 µM) was > 10 µM, the IC50 (second compound 3.16 µM) was > 10 µM and the IC50 (second compound 10 µM) was < 0.0316 µM. It also gave a viability, T/C [1] of 106%, a viability, T/C [2] of 94.2% and a viability, T/C [3] of 111%. It also gave a viability, T/C [4] of 99.2%, a viability, T/C [5] of 78.1% and a viability, T/C [6] of 87.8%. It also gave a viability, T/C [7] of 118%, a viability, T/C [8] of 92.3% and a viability, T/C [9] of 92.9%. The viability, T/C [10] was 89.6%, the viability, T/C [11] was 108% and the viability, T/C [12] was 73.3%. The viability, T/C [13] was 98.8%, the viability, T/C [14] was 101% and the viability, T/C [15] was 89.3%. The viability, T/C [16] was 94.3%, the viability, T/C [17] was 94% and the viability, T/C [18] was 80.1%. It also gave a viability, T/C [19] of 99.4%, a viability, T/C [20] of 99.1% and a viability, T/C [21] of 102%. For the same compound, the viability, T/C [22] was 85.3%, the viability, T/C [23] was 76.9% and the viability, T/C [24] was 71.2%. It also gave a viability, T/C [25] of 78.5%, a viability, T/C [26] of 65.6% and a viability, T/C [27] of 64.2%. The viability, T/C [28] was 59.8%, the viability, T/C [29] was 64.5% and the viability, T/C [30] was 57.1%. It also gave a viability, T/C [31] of 40.1%, a viability, T/C [32] of 41.7% and a viability, T/C [33] of 37%. For the same compound, the viability, T/C [34] was 31.4%, the viability, T/C [35] was 30.2% and the viability, T/C [36] was 34.2%.
For CC1(C)CCC(Nc2ncc(C(F)(F)F)c(-c3c[nH]c4c(P(C)(C)=O)c(C#N)ccc34)n2)CN1 (stereo unspecified) + Cc1nc(NC(=O)N2CCCC2C(N)=O)sc1-c1ccnc(C(C)(C)C(F)(F)F)c1, the IC50 (second compound 0.0316 µM) was 8.08 µM, the IC50 (second compound 0.1 µM) was > 10 µM and the IC50 (second compound 0.316 µM) was 4.92 µM. For the same compound, the IC50 (second compound 1 µM) was 3.39 µM, the IC50 (second compound 3.16 µM) was < 0.0316 µM and the IC50 (second compound 10 µM) was < 0.0316 µM. For the same compound, the viability, T/C [1] was 73.6%, the viability, T/C [2] was 64.5% and the viability, T/C [3] was 73.7%. The viability, T/C [4] was 72.4%, the viability, T/C [5] was 72.2% and the viability, T/C [6] was 45.1%. The viability, T/C [7] was 68.7%, the viability, T/C [8] was 65.8% and the viability, T/C [9] was 65.6%. For the same compound, the viability, T/C [10] was 64.6%, the viability, T/C [11] was 70.9% and the viability, T/C [12] was 42.9%. It also gave a viability, T/C [13] of 67%, a viability, T/C [14] of 57.7% and a viability, T/C [15] of 55%. For the same compound, the viability, T/C [16] was 55.7%, the viability, T/C [17] was 59.2% and the viability, T/C [18] was 35.9%. The viability, T/C [19] was 56.7%, the viability, T/C [20] was 58.1% and the viability, T/C [21] was 45.2%. It also gave a viability, T/C [22] of 44.2%, a viability, T/C [23] of 54.4% and a viability, T/C [24] of 22.7%. For the same compound, the viability, T/C [25] was 47.3%, the viability, T/C [26] was 41.3% and the viability, T/C [27] was 42.3%. For the same compound, the viability, T/C [28] was 38.6%, the viability, T/C [29] was 40.1% and the viability, T/C [30] was 8.96%. It also gave a viability, T/C [31] of 30.3%, a viability, T/C [32] of 29.4% and a viability, T/C [33] of 26.6%. It also gave a viability, T/C [34] of 27.5%, a viability, T/C [35] of 20.8% and a viability, T/C [36] of 3.07%.
For C#Cc1c(F)ccc2cc(O)cc(-c3ncc4c(N5CC6CCC(C5)N6)nc(OCC56CCCN5CC(F)C6)nc4c3F)c12 (stereo unspecified) + CC(Nc1ncnc2nc[nH]c12)c1cc2cccc(Cl)c2c(=O)n1-c1ccccc1, the IC50 (second compound 0.0316 µM) was > 10 µM, the IC50 (second compound 0.1 µM) was > 10 µM and the IC50 (second compound 0.316 µM) was > 10 µM. The IC50 (second compound 1 µM) was > 10 µM, the IC50 (second compound 3.16 µM) was > 10 µM and the IC50 (second compound 10 µM) was > 10 µM. For the same compound, the viability, T/C [1] was 101%, the viability, T/C [2] was 116% and the viability, T/C [3] was 96.5%. It also gave a viability, T/C [4] of 106%, a viability, T/C [5] of 102% and a viability, T/C [6] of 104%. For the same compound, the viability, T/C [7] was 96.4%, the viability, T/C [8] was 86.3% and the viability, T/C [9] was 106%. It also gave a viability, T/C [10] of 106%, a viability, T/C [11] of 110% and a viability, T/C [12] of 89.3%. For the same compound, the viability, T/C [13] was 109%, the viability, T/C [14] was 80.9% and the viability, T/C [15] was 104%. It also gave a viability, T/C [16] of 95.2%, a viability, T/C [17] of 106% and a viability, T/C [18] of 97.8%. It also gave a viability, T/C [19] of 92.4%, a viability, T/C [20] of 116% and a viability, T/C [21] of 97.5%. For the same compound, the viability, T/C [22] was 76.7%, the viability, T/C [23] was 116% and the viability, T/C [24] was 93.1%. The viability, T/C [25] was 92.6%, the viability, T/C [26] was 93.5% and the viability, T/C [27] was 101%. For the same compound, the viability, T/C [28] was 84.3%, the viability, T/C [29] was 86.8% and the viability, T/C [30] was 86%. For the same compound, the viability, T/C [31] was 107%, the viability, T/C [32] was 91.3% and the viability, T/C [33] was 109%. For the same compound, the viability, T/C [34] was 87.9%, the viability, T/C [35] was 97.3% and the viability, T/C [36] was 89.6%.
